From patent US20030114529A1, “Hydroxamic acid thrombospondin peptide analog that inhibits aggrecanase activity” (priority 2001, published 2003)

Key:
[1] = system: ADAMTS-4/ADAMTS-5 (aggrecanase); assay: Inhibition of aggrecan cleavage at Glu1480-Gly1481 by recombinant ADAMTS-4/ADAMTS-5 (Western blot, densitometry); format: biochemical, Human; conditions: aggrecan 500 nM, enzyme 5 nM, 2 hours, 37° C.; Ki = IC50/(1 + [S]/Km); read-out: Apparent Ki aggrecanase ADAM-TS4/5
Protocol: A series of newly synthesized hydroxamic acids (FIG. 1) were tested for their ability to inhibit recombinant ADAMTS-4/ADAM-TS5 as well a several matrix metalloproteinases (MMPs). In this study aggrecan, at a concentration of 500 nM, was incubated for 2 hours at 37° C. with 5 nM of either ADAMTS-4/ADAM-TS5 in the presence or absence of one of the hydroxamic acids at a concentration range from 0.1 to 1000 nM. Subsequently, the fractions were analysed for cleavage of aggrecan at the Glu^1480-^1481Gly site by Western Blot analysis, using a specific antibody recognizing the new C-terminus GELE^1480. Inhibition of cleavage was determined by scanning densitometry and the Ki values were determined (Table 1).
Digestions were carried out in 100 μl of 50 mM Tris/HCl buffer, pH 7.5, containing 100 mM NaCl and 10 mM CaCl2. Human recombinant ADAMTS-4/ADAMTS-5 were prepared as described (1, 2). Purified bovine aggrecan (12) (500 nM) was incubated with 5 nM ADAMTS-4/ADAMTS-5 at 37° C. for 2 hours, in the absence or presence of each of the hydroxamates described above, at concentrations ranging from […]. Following the incubation, cleavage of aggrecan at the Glu^1480-^1481Gly bond was monitored by Western Blot analysis, using the neoepitope antibody that recognizes the new C-terminus GELE^1480, as previously described (12).

[2] = biological target: stromelysin MMP-3 (Homo sapiens, UniProt P08254); assay: Inhibition of stromelysin MMP-3 by hydroxamic acids; format: biochemical; conditions: for Ki: Ki = IC50/(1 + [S]/Km), read-out: Apparent Ki stromelysin MMP-3
[3] = biological target: T1, gelatinase MMP-2 (Homo sapiens, UniProt P08253); assay: Inhibition of gelatinase MMP-2 by hydroxamic acids; format: biochemical; conditions: for Ki: Ki = IC50/(1 + [S]/Km), read-out: Apparent Ki gelatinase MMP-2
T1 sequence (P08253 110-660): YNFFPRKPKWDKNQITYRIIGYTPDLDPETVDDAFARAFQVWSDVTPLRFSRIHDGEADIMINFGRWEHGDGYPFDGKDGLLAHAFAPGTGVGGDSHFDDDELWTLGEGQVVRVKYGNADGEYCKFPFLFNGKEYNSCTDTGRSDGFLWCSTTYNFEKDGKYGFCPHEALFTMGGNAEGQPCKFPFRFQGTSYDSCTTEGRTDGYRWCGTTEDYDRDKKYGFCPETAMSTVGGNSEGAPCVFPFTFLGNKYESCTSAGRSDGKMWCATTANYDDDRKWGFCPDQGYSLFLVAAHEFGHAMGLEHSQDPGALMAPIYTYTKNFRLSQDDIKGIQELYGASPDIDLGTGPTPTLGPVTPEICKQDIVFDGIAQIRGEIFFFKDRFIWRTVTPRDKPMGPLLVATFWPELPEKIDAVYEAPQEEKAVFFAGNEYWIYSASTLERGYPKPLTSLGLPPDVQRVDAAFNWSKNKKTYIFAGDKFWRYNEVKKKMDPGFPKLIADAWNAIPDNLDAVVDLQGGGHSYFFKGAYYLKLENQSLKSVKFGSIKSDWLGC

[4] = biological target: T2, Collagenase MMP-1 (Homo sapiens, UniProt P03956); assay: Inhibition of collagenase MMP-1 by hydroxamic acids; format: biochemical; conditions: for Ki: Ki = IC50/(1 + [S]/Km), read-out: Apparent Ki Collagenase MMP-1
T2 sequence (P03956 100-469): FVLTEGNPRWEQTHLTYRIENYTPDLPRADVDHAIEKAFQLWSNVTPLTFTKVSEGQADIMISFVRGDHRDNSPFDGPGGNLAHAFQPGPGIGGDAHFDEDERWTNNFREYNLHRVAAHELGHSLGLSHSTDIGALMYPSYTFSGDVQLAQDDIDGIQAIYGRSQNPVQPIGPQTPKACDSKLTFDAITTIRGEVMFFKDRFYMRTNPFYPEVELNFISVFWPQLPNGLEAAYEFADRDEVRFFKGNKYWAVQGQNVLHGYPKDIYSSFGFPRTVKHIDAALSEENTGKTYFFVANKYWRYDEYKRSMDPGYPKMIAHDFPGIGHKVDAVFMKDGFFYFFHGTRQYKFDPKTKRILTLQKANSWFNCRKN

[5] = system: Pig articular cartilage explants; assay: IL-1 induced aggrecan degradation in pig articular cartilage explants (GAG release, DMMB assay); format: cell-based; conditions: 72 hours; for IC50: Sus scrofa, pig explants, IL-1α, inhibitor 0.1 to 10 μM
Protocol: (§1) The same compounds were tested for the ability to block aggrecan cleavage in an in vitro model of cartilage degradation. Pig articular cartilage explants were cultured for 72 hours in the presence of IL-α, with or without one of the inhibitors at a concentration range og 0.1 to 10 μM. Culture media were assessed for the level of glycosaminoglycan chains (GAG) by dimethyl methylene blue (DMMB) assay, as a measure of aggrecan breakdown and IC50 values were calculated (Table 1). […] Therefore, we tested JWD40 for its ability to prevent aggrecan degradation in osteoarthritic (OA) cartilage. Human OA cartilage explants were cultured with or without JWD40, 0.1 to 10 μM. After 48 hours, media were analyzed for the presence of aggrecan products generated by cleavage by aggrecanase, containing the new N-terminus ^374ARGSV.
Articular cartilage was dissected from the knees of young pigs. Cartilage was allowed to equilibrate for 3 days in DMEM supplemented with 10% FCS, penicillin (100 U/ml) and streptomycin (100 μg/ml). Subsequently, cartilage was cut into 3×3 mm explants, weighing approximately 10-20 mg each, and incubated in 96-well plates for 72 hours with either control medium (serum-free DMEM),ml), IL-1α (100 ng/ml), or IL-1α (100 ng/ml) plus a series of hydroxamic acids at a concentration range of 0.1 μM to 10 μM. At the end of the culture period, glycosaminoglycan (GAG) levels in the culture media were determined by dimethylmethylene blue (DMMB) assay, as described by Farndale et al (13).

[6] = system: Human OA cartilage explants; assay: Aggrecanase-generated aggrecan fragment release from human osteoarthritic cartilage explants; format: cell-based; conditions: 0.1 to 10 μM, 48 hours
Protocol: as §1
Articular cartilage was dissected from the hips of patients with osteoarthritis at the time of joint replacement. Cartilage was allowed to equilibrate for 3 days in DMEM supplemented with penicillin (100 U/ml) and streptomycin (100 μg/ml). […] At the end of the culture period, the media were analyzed for aggrecan fragments generated by cleavage of aggrecan by aggrecanase, using a neoepitope that recognizes the new N-terminus […] (14).

[7] = system: aggrecanase-1 (ADAMTS4); assay: Protection of native aggrecan from cleavage by full length aggrecanase-1 (Western blot, MAB2035); format: biochemical; conditions: peptide 100 μM, ADAMTS4 5 nM, aggrecan 500 nM, 5 hours, 37° C.
Protocol: An aggrecan binding peptide sequence derived from thrombospondin motif of aggrecanase-1 was tested for its ability to protect aggrecan from degradation by aggrecanase. Full length aggrecanase-1 (ADAMTS4), 5 nM, was incubated with native aggrecan, 500 nM, for 5 hours at 37° C. in the presence of the thrombospondin peptide GGWGPWGPWGDCSRTCGGG, 100 μM (Seq. No. 14). Aggrecan cleavage products were measured by Western blot analysis using the monoclonal antibody MAB2035.

[8] = compared with Ki against aggrecanase

Sequence of stromelysin MMP-3 (P08254 100-477): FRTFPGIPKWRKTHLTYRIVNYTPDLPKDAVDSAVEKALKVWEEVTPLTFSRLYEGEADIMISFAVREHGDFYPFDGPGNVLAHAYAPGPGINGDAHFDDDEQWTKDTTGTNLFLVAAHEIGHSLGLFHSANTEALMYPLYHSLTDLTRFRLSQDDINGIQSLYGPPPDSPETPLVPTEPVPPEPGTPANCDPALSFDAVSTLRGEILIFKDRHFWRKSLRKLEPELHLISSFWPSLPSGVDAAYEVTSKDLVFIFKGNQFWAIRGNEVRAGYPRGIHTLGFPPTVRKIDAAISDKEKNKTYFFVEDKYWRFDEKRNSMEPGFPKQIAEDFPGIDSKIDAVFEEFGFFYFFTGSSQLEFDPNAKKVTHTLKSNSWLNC

Ki [2]	Ki [3]	Ki [4]	Potency against MMP-3 relative to aggrecanase [2, 8]	Potency against MMP-2 relative to aggrecanase [3, 8]	Potency against MMP-1 relative to aggrecanase [4, 8]	Compound	Ki [1]	IC50 [5]	Release of aggrecanase-generated fragment with N-terminus 374ARGSV [6]	Protection against IL-1 induced aggrecan degradation ([5]; pig articular cartilage explants)	Protection of aggrecan from cleavage by aggrecanase [7]
65 nM	2.3 nM	5.9 nM				CNC(=O)C(Cc1ccc(F)cc1)NC(=O)C(CC(=O)NO)CC(C)C (stereo not shown) [JWC-95]	98 nM	2900 nM			
135 nM	2.3 nM	7.4 nM				CNC(=O)C(CCc1ccccc1)NC(=O)C(CC(=O)NO)CC(C)C (stereo not shown) [JWC-97]	62 nM	1800 nM			
0.9 nM	< 0.1 nM	1 nM				CNC(=O)C(Cc1ccc(OCc2ccccc2)cc1)NC(=O)C(CC(=O)NO)CC(C)C (stereo not shown) [JWC-100]	160 nM	6000 nM			
> 1000 nM	> 1000 nM	995 nM				CNC(=O)C(Cc1ccccc1)NC(=O)C(CC(=O)O)CC(C)C (stereo not shown) [JWD-18]	> 10000 nM	> 100000 nM			
125 nM	36 nM	26 nM	a log less potency	twofold less potent	twofold less potent	CNC(=O)[C@@H](NC(=O)[C@@H](CC(=O)NO)CC(C)C)C(C)C [JWD-40]	17 nM	2050 nM	blocked the release of this fragment in a concentration-dependent manner	very effective	
	59 nM	76 nM				CNC(=O)C(C)NC(=O)C(CC(=O)NO)CC(C)C (stereo not shown) [JWD-52]	35 nM				
						GGWGPWGPWGDCSRTCGGG					protects aggrecan from cleavage by aggrecanase
